Test results from patent publication US20120237535A1, “Therapeutic Compositions For The Treatment of HPV-Induced Diseases” (priority 2009, published 2012).

Assays:
[1] = system: bone marrow-derived dendritic cells; assay: Maturation of bone marrow-derived dendritic cells, maturation markers by flow cytometry; format: cell-based, mouse; conditions: BMDC incubated with 500 nM
Description: FIG. 2: Activation of bone marrow-derived dendritic cell maturation by the EDAHPV-E7 fusion protein. Bone marrow-derived dendritic cells were incubated for 48 hours with EDA-HPVE7 (500 nM), with peptide E7(49-57) (500 nM), with LPS (1 μg/ml) (positive control) or with culture medium (Control Neg). Cells were then harvested and analyzed by flow cytometry for the expression of the H-2b molecule or the maturation markers CD54 and CD86 (RFU: Relative fluorescence units).
Bone marrow (BM)-derived dendritic cells were generated from mouse femur marrow cell cultures. After lysing erythrocytes with ACK lysing buffer, bone marrow cell were washed and subsequently depleted of lymphocytes and granulocytes by incubation with a mixture of antibodies against CD4 (GK1; ATCC, Manassas, Va.), CD8 (53.6.72; ATCC), Ly-6G/Gr1 (BD-Pharmingen; San Diego, Calif.) and CD45R/B220 (BD-Pharmingen) followed by rabbit complement. […] After 24 h of culture, supernatants were harvested and IL-12 (p70) and TNF-α were measured by ELISA (BD-Pharmingen), according to manufacturer's instructions. Expression of DC maturation markers was measured by flow cytometry. […] After this initial incubation, cells were stained with the primary antibodies at 4° C. for 15 min, washed and acquired on FACSscan cytometer (BD Biosciences, San Diego, Calif.) and analyzed using Cell Quest software (BD Biosciences). […]

[2] = system: bone marrow-derived dendritic cells; assay: IL-12 production by bone marrow-derived dendritic cells (ELISA); format: cell-based, mouse; conditions: 500 nM; ELISA of culture supernatant
Description: (§1) FIG. 3: EDA-HPV-E7 fusion protein induces the production of IL-12 by bone marrow-derived dendritic cells or the production of TNF-α by the human monocyte cell line THP-1. (A) Bone marrow-derived dendritic cells were incubated for […] with EDA-HPVE7 (500 nM), with peptide E7(49-57) (500 nM), with LPS (1 μg/ml) (positive control) or with culture medium (negative control). 24 hours later, the culture supernatant was harvested and the IL-12 released to the supernatant was measured by ELISA. (B) THP-1 cells were incubated for 15 hours with EDA-HPVE7 (500 nM), with peptide E7(49-57) (500 nM), with LPS (1 μg/ml) or with culture medium (negative control). After culture, the supernatants were harvested and the released TNF-α was measured by ELISA.
Bone marrow (BM)-derived dendritic cells were generated from mouse femur marrow cell cultures. […] After 24 h of culture, supernatants were harvested and IL-12 (p70) and TNF-α were measured by ELISA (BD-Pharmingen), according to manufacturer's instructions. Expression of DC maturation markers was measured by flow cytometry. […] After this initial incubation, cells were stained with the primary antibodies at 4° C. for 15 min, washed and acquired on FACSscan cytometer (BD Biosciences, San Diego, Calif.) and analyzed using Cell Quest software (BD Biosciences). […]

[3] = system: human monocyte cell line THP-1; assay: In vitro monocyte activation, TNF-α released by THP-1 (ELISA); format: cell-based; conditions: 500 nM, 15 hours
Description: as §1
THP-1 cells were plated at 1×10^6 cells/well and cultured overnight at 37° C. and 5% CO2 in complete medium for stabilization of the culture. Different concentrations of the indicated antigens were added to the cultures and after 15 hour of incubation, culture supernatants were harvested. The concentration of human TNF-α released to the medium by the THP-1 cell line was quantified using a commercial ELISA assay (BD Pharmingen), according to manufacturer's instructions.
Therefore, it was assayed if the recombinant protein EDA-HPV-E7 was also able to induce maturation of BMDC in vitro.

[4] = system: EL4 cells pulsed with DTc peptide; assay: In vivo induction of CTL by immunization, chromium release assay; design: species or system C57BL/6 mice; conditions: 2 nmol i.v. in PBS, no adjuvant; spleen cells day 7, cultured 5 days; compared with peptide DTc/E7(49-57)
Description: FIG. 4: In vivo induction of CTL by immunization with EDA-HPV-E7 protein or with the DTc/E7(49-57) peptide in PBS. (A) Mice were immunized i.v with 2 nmol EDA-HPV-E7 or with the DTc/E7(49-57) peptide. Seven days alter immunization, the mice were sacrificed and spleen cells were cultured in the presence or absence of DTc peptide for 5 days. CTL activity was measured using a conventional chromium release assay using EL4 cells radio labeled and pulsed with DTc peptide as target cells in the splenocytes cultures obtained from the mice immunized with the protein EDA-HPV-E7 (closed circles) ◯ with the peptide DTc/E7 (49-57) (open circles) (On the graphic, the absolute values are shown, said values are calculated by subtracting the value of lysis obtained without peptide from the value obtained in the presence of peptide). […]
It was assayed if mice immunized with the EDA-HPVE7 fusion protein developed HPVE7-specific T cell responses. […] CTL activity was measured using a conventional chromium release assay using radio labeled EL4 cells pulsed with DTc peptide or without peptide as target cells. (FIG. 4A) (On the graphic, the absolute values are shown, said values are calculated subtracting the value of lysis obtained without peptide from the value obtained in the presence of peptide). […]

[5] = system: HPVE7-specific T cell responses; assay: IFN-γ producing cells by ELISPOT in splenocytes of immunized mice; format: in vivo, C57BL/6 mice; conditions: 2 nmol i.v. in PBS, compared with E7(49-57) peptide
[6] = system: TC-1 tumor cells expressing HPV16-E6 and HPV16-E7; assay: Therapeutic efficacy against established TC-1 tumors (approximately 8 mm, treated day 25); format: in vivo, C57BL/6 mice; conditions: TC-1 s.c., treated i.v. day 25, tumors about 8 mm; for tumor growth: mean of two perpendicular diameters
Description: FIG. 6: Therapeutic efficacy of the EDA-HPVE7 fusion protein combined with poly I:C (pI:C). Mice were injected with 5×10^5 TC-1 cells and 25 days later, when tumor mean diameters were approximately 8 mm, they were treated intravenously with different vaccine combinations based on EDA (A). Tumor size, presented as the average of two perpendicular diameters (millimeters), was measured at regular intervals. The number of tumor-free mice on day 100 relative to the total number of animals included and the percent surviving on day 100 are indicated for each set of experiments. The p-value (*p<0.05) determined by the likelihood ratio test comparing tumor growth in the EDA-E7/pI:C treated group with tumor growth in the p:IC-treated group is indicated. The mice were sacrificed when the tumor diameters reached 20 mm or when necessary due to the sanitary status of the animals. (B) Survival curves from the immunized mice with the indicated immunogens are indicated (p values are indicated ((*p<0.05)). Pooled data of two independent experiments are shown.
THP1 cells (American Type Culture Collection ATCC, Manassas, Va.) were used for in vitro assays of monocyte activation by EDA derived fusion proteins. TC-1, tumor cells expressing HPV16-E6 and HPV16-E7 proteins derived from primary mouse lung epithelial cells, were obtained from the American Type Culture Collection (LGC Promochem, Molsheim, France). Cells were maintained in RPMI 1640 with GlutaMAX supplemented with 10% heat-inactivated fetal calf serum, 100 units/ml penicillin, 100 μg/ml streptomycin, 0.4 mg/ml geneticin and 5×10-5 mol/l 2-mercaptoethanol (Life Technologies, Cergy-Pontoise, France). 5×10^5 TC-1 cells were injected into the shaved back (left side) of C57BL/6 mice in 200 μL PBS. Tumor size, presented as the average of two perpendicular diameters (millimeters), was measured at regular intervals.
Monolix software (http://www.monolix.org/) was used for analysis of tumor growth data with non-linear mixed effect models. Mean diameters of tumors over time were fitted using the model described in equation 1.1 and treatments were compared using the likelihood ratio test.
Kaplan-Meier plots were used to analyze survival. Prism software (GraphPad Software, Inc. San Diego, USA) was used to determine the significance of differences in survival curves with a log rank test. The results of the in vivo killing analysis were analyzed by ANOVA followed by Dunnett's Multiple Comparison test. p values less than 0.05 were considered to be statistically significant.
To better evaluate the potency of EDA-HPVE7 as an antigen delivery system and as a vaccine, the therapeutic efficacy of this fusion protein was compared with that of the E7(49-57) peptide, both supplemented with TLR ligand pI:C. […]

Substance	expression of the maturation marker CD54 [1]	expression of the maturation marker IAb [1]	production of IL-12 cytokine by BMDC [2]	production of TNF-α cytokine by THP-1 [3]	CTL activity against target cells pulsed with the cytotoxic T cell epitope E7 [4]	number of IFN-γ producing spots specific for E7(49-57) [5]	number of IFN-γ producing spots specific for TC1 cells ([5]; irradiated TC1 cells)	tumor eradication (in words) [6]	tumor growth [6]	survival ([6]; Kaplan-Meier, log rank test)
EDA-HPVE7: recombinant fusion protein: amino acids 1-29 of HPV-E7 at N-terminus of fibronectin EDA, amino acids 43-98 at C-terminus, six histidine residues	able to upregulate expression	able to upregulate expression	able to strongly stimulate the production	able to induce the production	higher levels of CTL activity	higher number of IFN-γ producing spots	higher number of IFN-γ producing spots	unable to eradicate the tumors	a delay in tumor growth was observed	
Polyinosinic-polycytidylic acid [pI:C, reference compound]									followed the same tumor growth kinetics	slight, statistically non-significant prolongation of survival
